Data taken from PMC6364417, “Kinase inhibitor library screening identifies synergistic drug combinations effective in sensitive and resistant melanoma cells” (Journal of Experimental & Clinical Cancer Research : CR, 2019).

Columns and labels:
Assay in all cases: Kinase inhibitor library screening, PrestoBlue cell viability, 1 or 10 μM, 72 h
[1] = system: 501Mel-GP cells (Dabrafenib-resistant); details: 72 h; for Cell viability in kinase inhibitor library screening, 501Mel GP, 1μΜ / Cell viability in kinase inhibitor library screening, 501Mel GP, 10μΜ: in %; for Cell viability in kinase inhibitor library screening, 501Mel GP, 1μΜ / Cell viability in kinase inhibitor library screening, 501Mel GP, 10μΜ / cell viability (kinase inhibitor library screening): 501Mel GP
Procedure: (§1) After 72 h of treatment, cell viability was assessed using the PrestoBlue Cell Viability Reagent (ThermoFisher Scientific). Measurements were performed with the CLARIOstar Monochromator microplate reader (BMG Labtech).
(§2) Kinase inhibitor library screening. […] Each cell line was treated in its sensitive form (parental), and also as 2 resistant derivatives, which were made resistant to either Vemurafenib (XP) or Dabrafenib (GP). Drugs were added at 2 different concentrations, 1 and 10 μM, for 72 h and cell viability was assessed using the PrestoBlue Cell Viability assay. Results are depicted as % viability compared to untreated cells. Each cell line was analyzed at least in duplicate. […] (XLSX 95 kb)

[2] = system: IGR37-XP cells (Vemurafenib-resistant); details: for Cell viability in kinase inhibitor library screening, IGR37 XP, 10μΜ / Cell viability in kinase inhibitor library screening, IGR37 XP, 1μΜ / cell viability (kinase inhibitor library screening): 72 h, IGR37 XP; for Cell viability in kinase inhibitor library screening, IGR37 XP, 1μΜ: in %
Procedure: as §1, §2

[3] = system: 501Mel-XP cells (Vemurafenib-resistant); details: 72 h; for Cell viability in kinase inhibitor library screening, 501Mel XP, 1μΜ / Cell viability in kinase inhibitor library screening, 501Mel XP, 10μΜ: in %; for Cell viability in kinase inhibitor library screening, 501Mel XP, 1μΜ / Cell viability in kinase inhibitor library screening, 501Mel XP, 10μΜ / cell viability (kinase inhibitor library screening): 501Mel XP
Procedure: as §1, §2

[4] = system: IGR37 cells (parental); details: for Cell viability in kinase inhibitor library screening, IGR37 Parental, 1μΜ / Cell viability in kinase inhibitor library screening, IGR37 Parental, 10μΜ: in %
Procedure: as §1, §2

[5] = system: A375-XP cells (Vemurafenib-resistant); details: for Cell viability in kinase inhibitor library screening, A375 XP, 1μΜ / Cell viability in kinase inhibitor library screening, A375 XP, 10μΜ / cell viability (kinase inhibitor library screening): 72 h, A375 XP
Procedure: as §1, §2

[6] = system: 501Mel cells (parental); details: 72 h; for Cell viability in kinase inhibitor library screening, 501Mel Parental, 1μΜ / Cell viability in kinase inhibitor library screening, 501Mel Parental, 10μΜ: in %; for Cell viability in kinase inhibitor library screening, 501Mel Parental, 1μΜ / Cell viability in kinase inhibitor library screening, 501Mel Parental, 10μΜ / cell viability (kinase inhibitor library screening): 501Mel Parental
Procedure: as §1, §2

[7] = system: IGR37-GP cells (Dabrafenib-resistant); details: for Cell viability in kinase inhibitor library screening, IGR37 GP, 10μΜ / Cell viability in kinase inhibitor library screening, IGR37 GP, 1μΜ / cell viability (kinase inhibitor library screening): 72 h, IGR37 GP; for Cell viability in kinase inhibitor library screening, IGR37 GP, 1μΜ: in %
Procedure: as §1, §2

[8] = system: A375-GP cells (Dabrafenib-resistant); details: for Cell viability in kinase inhibitor library screening, A375 GP, 1μΜ / Cell viability in kinase inhibitor library screening, A375 GP, 10μΜ / cell viability (kinase inhibitor library screening): 72 h, A375 GP
Procedure: as §1, §2

[9] = system: A375 cells (parental)
Procedure: as §1, §2

| Structure (SMILES) | Cell viability in kinase inhibitor library screening, 501Mel GP, 1μΜ ([1]; 1μΜ) | Cell viability in kinase inhibitor library screening, 501Mel GP, 10μΜ ([1]; 10μΜ) | Cell viability in kinase inhibitor library screening, IGR37 XP, 10μΜ ([2]; 10μΜ) [%] | Cell viability in kinase inhibitor library screening, IGR37 XP, 1μΜ ([2]; 1μΜ) | Cell viability in kinase inhibitor library screening, 501Mel XP, 1μΜ ([3]; 1μΜ) | Cell viability in kinase inhibitor library screening, 501Mel XP, 10μΜ ([3]; 10μΜ) | Cell viability in kinase inhibitor library screening, IGR37 Parental, 1μΜ ([4]; IGR37 Parental, 1μΜ, 72 h) | Cell viability in kinase inhibitor library screening, IGR37 Parental, 10μΜ ([4]; IGR37 Parental, 72 h) | Cell viability in kinase inhibitor library screening, A375 XP, 1μΜ ([5]; 1μΜ) | Cell viability in kinase inhibitor library screening, A375 XP, 10μΜ ([5]; 10μΜ) | Cell viability in kinase inhibitor library screening, 501Mel Parental, 1μΜ ([6]; 1μΜ) | Cell viability in kinase inhibitor library screening, 501Mel Parental, 10μΜ ([6]; 10μΜ) | Cell viability in kinase inhibitor library screening, IGR37 GP, 10μΜ ([7]; 10μΜ) [%] | Cell viability in kinase inhibitor library screening, IGR37 GP, 1μΜ ([7]; 1μΜ) | Cell viability in kinase inhibitor library screening, A375 GP, 1μΜ ([8]; 1μΜ) | Cell viability in kinase inhibitor library screening, A375 GP, 10μΜ ([8]; 10μΜ) | Cell viability in kinase inhibitor library screening, A375 Parental, 10μΜ ([9]; A375 Parental, 10μΜ, 72 h) | Cell viability in kinase inhibitor library screening, A375 Parental, 1μΜ ([9]; A375 Parental, 72 h) | other results |
| --- | --- | --- | --- | --- | --- | --- | --- | --- | --- | --- | --- | --- | --- | --- | --- | --- | --- | --- | --- |
| CNC(=O)Nc1ccc(-c2nc(N3CC4CCC(C3)O4)c3cnn(C4CCC5(CC4)OCCO5)c3n2)cc1 [WYE-125132] | 16.3 | 8.1 | 12.8 | 30.9 | 18.5 | 5.5 | 27.6 | 22.1 | 19.4 | 17.0 | 17.3 | 5.8 | 34 | 43.3 | 22.4 | 15.7 | 19.3 | 22.3 |  |
| CC(C)c1cnn2c(NCc3ccccc3)cc(NCCCCCCN)nc12.Cl [BS-181 HCl] |  |  |  |  |  |  |  |  |  |  |  |  |  |  |  |  |  |  | cell viability (kinase inhibitor library screening) ([1]; 1μΜ): 108.6%; cell viability (kinase inhibitor library screening) ([1]; 10μΜ): 87.7%; cell viability (kinase inhibitor library screening) ([2]; 1μΜ): 97.6%; cell viability (kinase inhibitor library screening) ([2]; 10μΜ): 59.8%; cell viability (kinase inhibitor library screening) ([3]; 1μΜ): 98.4%; cell viability (kinase inhibitor library screening) ([3]; 10μΜ): 55.9%; cell viability (kinase inhibitor library screening) ([4]; IGR37 Parental, 1μΜ, 72 h): 98.6%; cell viability (kinase inhibitor library screening) ([5]; 1μΜ): 112.1%; cell viability (kinase inhibitor library screening) ([5]; 10μΜ): 92.4%; cell viability (kinase inhibitor library screening) ([6]; 1μΜ): 97.6%; cell viability (kinase inhibitor library screening) ([6]; 10μΜ): 87.4%; cell viability (kinase inhibitor library screening) ([7]; 1μΜ): 92.7%; cell viability (kinase inhibitor library screening) ([7]; 10μΜ): 81.4%; cell viability (kinase inhibitor library screening) ([8]; 1μΜ): 105.9%; cell viability (kinase inhibitor library screening) ([8]; 10μΜ): 84.9%; cell viability (kinase inhibitor library screening) ([9]; A375 Parental, 10μΜ, 72 h): 91.6% |
| Nc1cc(C(F)(F)F)c(-c2cc(N3CCOCC3)nc(N3CCOCC3)n2)cn1 [BKM120 (Buparlisib)] | 60.8 | 9.6 | 7.4 | 78.7 | 54.8 | 3.6 | 91.7 | 30.3 | 70.4 | 10.0 | 71.1 | 10.8 | 20.9 | 82.3 | 59.6 | 7.7 | 9.8 | 67.0 |  |
| N#CC[C@H](C1CCCC1)n1cc(-c2ncnc3[nH]ccc23)cn1 [Ruxolitinib (INCB018424)] |  |  |  |  |  |  |  |  |  |  |  |  |  |  |  |  |  |  | viability at 1 µM ([1]; Homo sapiens, read-out: cell viability, 501Mel GP, 1μΜ): 103%; viability at 10 µM ([1]; Homo sapiens, read-out: cell viability, 501Mel GP, 10μΜ): 87.9%; viability at 1 µM ([2]; Homo sapiens, IGR-37, 72 h, read-out: cell viability, IGR37 XP, 1μΜ): 103%; viability at 10 µM ([2]; Homo sapiens, IGR-37, 72 h, read-out: cell viability, IGR37 XP, 10μΜ): 76.6%; viability at 1 µM ([3]; Homo sapiens, read-out: cell viability, 501Mel XP, 1μΜ): 93.9%; viability at 10 µM ([3]; Homo sapiens, read-out: cell viability, 501Mel XP, 10μΜ): 86.6%; viability at 1 µM ([4]; Homo sapiens, IGR-37, 72 h, read-out: cell viability, IGR37 Parental, 1μΜ): 97%; viability at 10 µM ([4]; Homo sapiens, IGR-37, 72 h, read-out: cell viability, IGR37 Parental, 10μΜ): 96.3%; viability at 1 µM ([5]; Homo sapiens, A-375, 72 h, read-out: cell viability, A375 XP, 1μΜ): 102%; viability at 10 µM ([5]; Homo sapiens, A-375, 72 h, read-out: cell viability, A375 XP, 10μΜ): 106%; viability at 1 µM ([6]; Homo sapiens, read-out: cell viability, 501Mel Parental, 1μΜ): 95.6%; viability at 10 µM ([6]; Homo sapiens, read-out: cell viability, 501Mel Parental, 10μΜ): 96.5%; viability at 1 µM ([7]; Homo sapiens, IGR-37, 72 h, read-out: cell viability, IGR37 GP, 1μΜ): 93.2%; viability at 10 µM ([7]; Homo sapiens, IGR-37, 72 h, read-out: cell viability, IGR37 GP, 10μΜ): 88.6%; viability at 1 µM ([8]; Homo sapiens, A-375, 72 h, read-out: cell viability, A375 GP, 1μΜ): 95.8%; viability at 10 µM ([8]; Homo sapiens, A-375, 72 h, read-out: cell viability, A375 GP, 10μΜ): 88.9%; viability at 1 µM ([9]; Homo sapiens, A-375, 72 h, read-out: cell viability, A375 Parental, 1μΜ): 102%; viability at 10 µM ([9]; Homo sapiens, A-375, 72 h, read-out: cell viability, A375 Parental, 10μΜ): 92.9% |
